Measured values as given in US20070225242A1, “Method and composition for treating and preventing tumor metastasis in vivo” (The Board of Trustees of the Leland Stanford Junior …, priority 2005, published 2007).

What was measured:
Type in all cases: cell-based
human cancer cells = test: Cell viability; conditions: data not shown
MDA231 and SiHa cells = test: In vitro invasion assay (Matrigel-coated inserts); conditions: various human cancer cells; 24 hr oxygen deprived
Experimental: The first step of the metastatic process is cell invasion. […] The invasion of various human cancer cells in vitro was examined. […] Because LOX is a copper-dependent enzyme that can act intracellularly or extracellularly, cells were treated with bathocuprione disulphonate (BCS), a copper chelator that cannot permeate the cell membrane.
Invasive behavior was examined in vitro as previously described. Briefly, cells were serum deprived for 24 h then 2.5×10^4 cells were seeded in triplicate on both Matrigel-coated and uncoated inserts, moved to chambers containing 750 μl of FBS as a chemo-attractant and incubated at in normoxic or oxygen deprived conditions for 24 hr. Treatments with beta-aminoproprionitrile or bathocuprione disulphonate (Sigma) were performed 24 h prior to serum deprivation, and continued throughout the experiment.

FAK = FAK phosphorylation (phospho-FAK immunoblot); conditions: cells expressing LOX shRNA transfected with mature LOX
Description: Acquisition of motility is required before cells can migrate and invade. Invasive cell migration is a multi-step process^17 that commences with pseudopod protrusion at the leading edge driven by actin polymerization, resulting in focal adhesion formation and the activation of integrin and focal adhesion kinase (FAK). […] LOX protein expression extended along hairlike fibers protruding from the cell surface into the collagen matrix. […] Remodeling of the actin cytoskeleton with increased formation of stress fibers and focal adhesion in MDA231 control cells particularly in hypoxia was observed, which were not seen in cells expressing LOX shRNA.
A role for fibronectin (FN) was sought, because it was strongly associated with LOX expression in the breast cancer microarray data set that was analyzed (data not shown), is reported to regulate invasion, bind to integrins and interact with LOX, and is hypoxia induced. […] FAK phosphorylation could be induced in the cells expressing LOX shRNA by transfection with mature LOX (but not catalytically dead LOX), confirming a role for LOX in FAK phosphorylation. […]
Methods were performed as previously described. […] LOX was analyzed by using a rabbit polyclonal antibody raised against a synthetic peptide of human LOX (EDTSCDYGYHRRFA (SEQ ID NO:1); Open Biosystems). […] Quantification was performed with ImageQuant software.

Row | Molecule | cell viability (human cancer cells) | increased invasion under hypoxia or anoxia (MDA231 and SiHa cells) | FAK phosphorylation induced by transfection with mature LOX (FAK)
1 | Cc1cc(-c2ccc(S(=O)(=O)O)cc2)c2ccc3c(-c4ccc(S(=O)(=O)O)cc4)cc(C)nc3c2n1 [BCS, bathocuprione disulphonate] | Neither treatment with BAPN nor treatment with BCS affected cell viability | prevented the enhanced invasion of hypoxic cells | –
2 | catalase: catalase (Sigma), removes hydrogen peroxide, a by-product of LOX activity (protein, UniProt P00432 2-527, looked up) Catalase: ADNRDPASDQMKHWKEQRAAQKPDVLTTGGGNPVGDKLNSLTVGPRGPLLVQDVVFTDEMAHFDRERIPERVVHAKGAGAFGYFEVTHDITRYSKAKVFEHIGKRTPIAVRFSTVAGESGSADTVRDPRGFAVKFYTEDGNWDLVGNNTPIFFIRDALLFPSFIHSQKRNPQTHLKDPDMVWDFWSLRPESLHQVSFLFSDRGIPDGHRHMNGYGSHTFKLVNANGEAVYCKFHYKTDQGIKNLSVEDAARLAHEDPDYGLRDLFNAIATGNYPSWTLYIQVMTFSEAEIFPFNPFDLTKVWPHGDYPLIPVGKLVLNRNPVNYFAEVEQLAFDPSNMPPGIEPSPDKMLQGRLFAYPDTHRHRLGPNYLQIPVNCPYRARVANYQRDGPMCMMDNQGGAPNYYPNSFSAPEHQPSALEHRTHFSGDVQRFNSANDDNVTQVRTFYLKVLNEEQRKRLCENIAGHLKDAQLFIQKKAVKNFSDVHPEYGSRIQALLDKYNEEKPKNAVHTYVQHGSHLSAREKANL | – | – | could be prevented
